Experimental data published in patent US20240116985A1, “STAPLED PEPTIDES AND METHODS THEREOF” (priority 2020, published 2024).
≈ marks a conversion by molar mass, not a printed value. Like-named read-outs stand apart in the source and are kept apart here.

Experiments:
[1] = target: T1, full-length beta-Catenin (Uniprot ID P35222) (Homo sapiens, UniProt P35222); assay: Fluorescence polarization IC50 (beta-catenin / 5FAM-TCF4 10-53 competition); assay type: binding
T1 construct: 10 nM full-length beta-Catenin (Uniprot ID P35222)
T1 sequence (P35222 1-781): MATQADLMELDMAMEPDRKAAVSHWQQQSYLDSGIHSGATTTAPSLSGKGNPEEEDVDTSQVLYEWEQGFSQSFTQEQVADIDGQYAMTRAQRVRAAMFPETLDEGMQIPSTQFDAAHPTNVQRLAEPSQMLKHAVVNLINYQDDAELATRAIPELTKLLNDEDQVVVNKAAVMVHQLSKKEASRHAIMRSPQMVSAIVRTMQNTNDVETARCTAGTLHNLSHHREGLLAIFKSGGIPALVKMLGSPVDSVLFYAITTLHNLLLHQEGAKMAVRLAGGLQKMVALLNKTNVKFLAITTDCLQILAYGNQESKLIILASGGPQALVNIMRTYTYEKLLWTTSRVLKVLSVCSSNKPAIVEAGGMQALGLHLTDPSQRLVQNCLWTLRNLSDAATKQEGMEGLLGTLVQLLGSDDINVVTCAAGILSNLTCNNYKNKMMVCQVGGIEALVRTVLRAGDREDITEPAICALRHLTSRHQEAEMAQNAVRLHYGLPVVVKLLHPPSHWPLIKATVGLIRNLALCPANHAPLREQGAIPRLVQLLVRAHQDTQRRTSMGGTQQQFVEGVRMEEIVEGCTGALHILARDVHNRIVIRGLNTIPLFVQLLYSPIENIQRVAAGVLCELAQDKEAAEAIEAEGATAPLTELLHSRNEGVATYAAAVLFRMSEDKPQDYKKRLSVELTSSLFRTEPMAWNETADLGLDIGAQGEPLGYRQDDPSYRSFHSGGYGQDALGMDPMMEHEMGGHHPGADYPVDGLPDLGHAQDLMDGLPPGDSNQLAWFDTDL

CHI Log D procedure = assay type: physicochemical
Solubility in PBS = assay type: physicochemical
Method in brief: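 The PBS solution was ultracentrifuged and the supernatant analyzed by HPLC. Its peak area was divided by that of a 50 μM peptide DMSO reference injection and multiplied by 50 uM to give solubility.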

[2] = fluorescence polarization, read-out: beta-Catenin FP IC50
[3] = fluorescence polarization, beta-catenin, read-out: FP EC50

Row | Compound | Solubility (Solubility in PBS) | IC50 [1, 2] | IC50 ([1]; read-out: FP EC50) | CHI Log D (CHI Log D procedure; pH 7.4) | other results
1 | CC(=O)N1CCC[C@]12CC=CCCCC1(CCCC=CCCCOC(=O)N3CC[C@@](C(=O)N[C@@H](Cc4ccsc4)C(=O)N[C@@H](Cc4csc5ccccc45)C(=O)N[C@@H](CCC(N)=O)C(N)=O)(C3)NC(=O)[C@H](CC(N)=O)NC(=O)[C@H](Cc3ccccc3)NC(=O)[C@H](C)NC(=O)[C@H](C)NC(=O)[C@H](CC(=O)O)NC(=O)[C@H](CC(=O)O)NC1=O)NC(=O)[C@H](CCCCNC(=O)CN=[N+]=[N-])NC(=O)[C@H](CC(=O)O)NC2=O (stereo partly drawn) [I-880, Ac-PL3-Asp-[AzAc]Lys-B5-Asp-Asp-Ala-Ala-Phe-Asn-PyrS2-3Thi-BztA-Gln-NH2] | 42 µM (≈ 84.1 µg/mL) | – | – | – | IC50 ([1]; FP EC50 (nM), fluorescence polarization, beta-catenin): 6 nM; chromatographic logD (CHI Log D procedure; pH 7.4): 1.72
2 | CC(=O)N1CCC[C@]12CC=CCCCC1(CCCC=CCCCCCC[C@@](C)(C(=O)N[C@@H](Cc3ccccc3)C(=O)N[C@@H](Cc3csc4ccccc34)C(N)=O)NC(=O)[C@H](CC(N)=O)NC(=O)[C@H](Cc3ccccc3)NC(=O)[C@H](C)NC(=O)[C@H](C)NC(=O)[C@H](CCC(=O)O)NC(=O)[C@H](CC(=O)O)NC1=O)NC(=O)[C@H](CC(C)C)NC(=O)[C@H](CC(=O)O)NC2=O (stereo partly drawn) [I-625, Ac-PL3-Asp-Leu-B5-Asp-Glu-Ala-Ala-Phe-Asn-S8-Phe-BztA-NH2] | 47 µM (≈ 81.8 µg/mL) | 119 nM | 119 nM | 2.681 | –
3 | CC(=O)N1CCC[C@]12CC=CCCCC1(CCCC=CCCCCCC[C@@](C)(C(=O)N[C@@H](Cc3ccsc3)C(=O)N[C@@H](Cc3csc4ccccc34)C(N)=O)NC(=O)[C@H](CC(N)=O)NC(=O)[C@H](Cc3ccccc3)NC(=O)[C@H](C)NC(=O)[C@H](C)NC(=O)[C@H](CCC(=O)O)NC(=O)[C@H](CC(=O)O)NC1=O)NC(=O)[C@H](CC(C)C)NC(=O)[C@H](CC(=O)O)NC2=O (stereo partly drawn) [I-716, Ac-PL3-Asp-Leu-B5-Asp-Glu-Ala-Ala-Phe-Asn-S8-3Thi-BztA-NH2] | 50 µM (≈ 87.4 µg/mL) | 91 nM | 91 nM | 2.622 | –
4 | CC(=O)N1CCC[C@]12CC=CCCCC1(CCCC=CCCCCCC[C@@](C)(C(=O)N[C@@H](Cc3ccsc3)C(=O)N[C@@H](Cc3csc4ccccc34)C(=O)N[C@@H](Cc3c[nH]cn3)C(N)=O)NC(=O)[C@H](CC(N)=O)NC(=O)[C@H](Cc3ccccc3)NC(=O)[C@H](C)NC(=O)[C@H](C)NC(=O)[C@H](CCC(=O)O)NC(=O)[C@H](CC(=O)O)NC1=O)NC(=O)[C@H](C)NC(=O)[C@H](CC(=O)O)NC2=O (stereo partly drawn) [I-516, Ac-PL3-Asp-Ala-B5-Asp-Glu-Ala-Ala-Phe-Asn-S8-3Thi-BztA-His-NH2] | 42 µM (≈ 77.4 µg/mL) | 23 nM | 23 nM | 2.072 | –
5 | CC(=O)N1CCC[C@]12CC=CCCCC1(CCCC=CCCCCCC[C@@](C)(C(=O)N[C@@H](Cc3ccsc3)C(=O)N[C@@H](Cc3csc4ccccc34)C(=O)N[C@@H](CCC(N)=O)C(N)=O)NC(=O)[C@H](CC(N)=O)NC(=O)[C@H](Cc3ccccc3)NC(=O)[C@H](C)NC(=O)[C@H](C)NC(=O)[C@H](CC(=O)O)NC(=O)[C@H](CC(=O)O)NC1=O)NC(=O)[C@H](CC(C)(C)C)NC(=O)C[C@H](CC(=O)O)NC2=O (stereo partly drawn) [I-1163, Ac-PL3-RbGlu-Npg-B5-Asp-Asp-Ala-Ala-Phe-Asn-S8-3Thi-BztA-Gln-NH2] | 48 µM (≈ 90.7 µg/mL) | 691 nM | – | 2.059 | IC50 [1, 3]: 691 nM
6 | CC[C@H](C)[C@@H]1NC(=O)[C@H](CC(=O)O)NC(=O)[C@]2(CC=CCCCC3(CCCC=CCCCCCC[C@@](C)(C(=O)N[C@@H](Cc4ccccc4)C(=O)N[C@@H](Cc4csc5ccccc45)C(=O)N[C@@H](CCC(N)=O)C(N)=O)NC(=O)[C@H](CCC(N)=O)NC(=O)[C@H](Cc4ccccc4)NC(=O)[C@H](C)NC(=O)[C@H](C)NC(=O)[C@H](CCC(=O)O)NC(=O)[C@H](CC(=O)O)NC3=O)NC1=O)CCCN2C(=O)c1cccnc1 (stereo partly drawn) [I-598, Nic-PL3-Asp-Ile-B5-Asp-Glu-Ala-Ala-Phe-Gln-S8-Phe-BztA-Gln-NH2] | – | 845 nM | – | – | chromatographic logD (CHI Log D procedure; pH 7.4, CHI Log D): 2.24; Solubility (Solubility in PBS; Solubility (uM)): 49 µM (≈ 95.4 µg/mL)
7 | CC(=O)N1CCC[C@]12CC=CCCCC1(CCCC=CCCCCCC[C@@](C)(C(=O)N[C@@H](Cc3ccccc3)C(=O)N[C@@H](Cc3csc4ccccc34)C(=O)N(C)[C@@H](Cc3cnc[nH]3)C(N)=O)NC(=O)[C@H](CC(N)=O)NC(=O)[C@H](Cc3ccccc3)NC(=O)[C@H](C)NC(=O)[C@H](C)NC(=O)[C@H](CCC(=O)O)NC(=O)[C@H](CC(=O)O)NC1=O)NC(=O)[C@H](CC(C)C)NC(=O)[C@H](CC(=O)O)NC2=O (stereo partly drawn) [I-747, Ac-PL3-Asp-Leu-B5-Asp-Glu-Ala-Ala-Phe-Asn-S8-Phe-BztA-NMeHis-NH2] | 15 µM (≈ 28.4 µg/mL) | 2390 nM | 2390 nM | 2.492 | –
8 | CC(=O)N1CCC[C@]12CC=CCCCC1(CCCC=CCCCCCC[C@@](C)(C(=O)N[C@@H](Cc3ccccc3C(N)=O)C(=O)N[C@@H](Cc3csc4ccccc34)C(=O)N[C@@H](Cc3c[nH]cn3)C(N)=O)NC(=O)[C@H](CC(N)=O)NC(=O)[C@H](Cc3ccccc3)NC(=O)[C@H](C)NC(=O)[C@H](C)NC(=O)[C@H](CCC(=O)O)NC(=O)[C@H](CC(=O)O)NC1=O)NC(=O)[C@H](C)NC(=O)[C@H](CC(=O)O)NC2=O (stereo partly drawn) [I-513, Ac-PL3-Asp-Ala-B5-Asp-Glu-Ala-Ala-Phe-Asn-S8-2CBMF-BztA-His-NH2] | 50 µM (≈ 94 µg/mL) | 143 nM | – | – | chromatographic logD (CHI Log D procedure; pH 7.4, CHI Log D): 1.57
9 | CC(=O)N1CCC[C@]12CC=CCCCC1(CCCC=CCCCCCC[C@@](C)(C(=O)NC(Cc3cncn3C)C(=O)N[C@@H](Cc3csc4ccccc34)C(=O)N[C@@H](CCC(N)=O)C(N)=O)NC(=O)[C@H](CC(N)=O)NC(=O)[C@H](Cc3ccccc3)NC(=O)[C@H](C)NC(=O)[C@H](C)NC(=O)[C@H](CCC(=O)O)NC(=O)[C@H](CC(=O)O)NC1=O)NC(=O)[C@H](C)NC(=O)[C@H](CC(=O)O)NC2=O (stereo partly drawn) [I-438, Ac-PL3-Asp-Ala-B5-Asp-Glu-Ala-Ala-Phe-Asn-S8-3meH-BztA-Gln-NH2] | – | 5000 nM | – | – | chromatographic logD (CHI Log D procedure; pH 7.4, CHI Log D): 1.39; solubility at 15 min (Solubility in PBS; Solubility (uM)): 46 µM (≈ 84.2 µg/mL)
10 | CC[C@H](C)[C@@H]1NC(=O)[C@H](CC(=O)O)NC(=O)[C@]2(CC=CCCCC3(CCCC=CCCCCCC[C@@](C)(C(=O)N[C@@H](Cc4ccccc4)C(=O)N[C@@H](Cc4csc5ccccc45)C(=O)N[C@@H](CO)C(N)=O)NC(=O)[C@H](CCC(N)=O)NC(=O)[C@H](Cc4ccccc4)NC(=O)[C@H](C)NC(=O)[C@H](C)NC(=O)[C@H](CCC(=O)O)NC(=O)[C@H](CC(=O)O)NC3=O)NC1=O)CCCN2C(C)=O (stereo partly drawn) [I-639, Ac-PL3-Asp-Ile-B5-Asp-Glu-Ala-Ala-Phe-Gln-S8-Phe-BztA-Ser-NH2] | 44 µM (≈ 81.1 µg/mL) | 109 nM | 109 nM | 2.49 | –
11 | CC(=O)N1CCC[C@]12CC=CCCCC1(CCCC=CCCCOC(=O)N3CC[C@@](C(=O)N[C@@H](Cc4ccsc4)C(=O)N[C@@H](Cc4csc5ccccc45)C(=O)N[C@@H](CCO)C(N)=O)(C3)NC(=O)[C@H](CC(N)=O)NC(=O)[C@H](Cc3ccccc3)NC(=O)[C@H](C)NC(=O)[C@H](C)NC(=O)[C@H](CN(CC(=O)O)CC(F)(F)F)NC(=O)[C@H](CC(=O)O)NC1=O)NC(=O)[C@H](CC(C)(C)C)NC(=O)[C@H](CC(=O)O)NC2=O (stereo partly drawn) [I-951, Ac-PL3-Asp-Npg-B5-Asp-TfeGA-Ala-Ala-Phe-Asn-PyrS2-3Thi-BztA-Hse-NH2] | 47 µM (≈ 94.1 µg/mL) | – | – | 1.971 | IC50 [1, 3]: 1470 nM; IC50 ([1]; read-out: beta-Catenin FP IC50): 1470 nM
12 | CCN(CC(=O)O)C[C@@H]1NC(=O)[C@H](CC(=O)O)NC(=O)C2(CCCC=CCCCOC(=O)N3CC[C@@](C(=O)N[C@@H](Cc4ccsc4)C(=O)N[C@@H](Cc4csc5ccccc45)C(=O)N[C@@H](CCC(N)=O)C(N)=O)(C3)NC(=O)[C@H](CC(N)=O)NC(=O)[C@H](Cc3ccccc3)NC(=O)[C@H](C)NC(=O)[C@H](C)NC1=O)CCCC=CC[C@]1(CCCN1C(C)=O)C(=O)N[C@@H](CC(=O)O)C(=O)N[C@@H](CC(C)(C)C)C(=O)N2 (stereo partly drawn) [I-964, Ac-PL3-Asp-Npg-B5-Asp-EtGA-Ala-Ala-Phe-Asn-PyrS2-3Thi-BztA-Gln-NH2] | 46 µM (≈ 90.9 µg/mL) | – | – | 1.802 | IC50 [1, 3]: 1440 nM; IC50 ([1]; read-out: beta-Catenin FP IC50): 1440 nM
13 | CC[C@H](C)[C@@H]1NC(=O)[C@H](CC(=O)O)NC(=O)[C@]2(CC=CCCCC3(CCCC=CCCCCCC[C@@](C)(C(=O)N[C@@H](Cc4ccccc4)C(=O)N[C@@H](Cc4csc5ccccc45)C(=O)N[C@@H](CCC(N)=O)C(N)=O)NC(=O)[C@H](CCC(N)=O)NC(=O)[C@H](Cc4ccccc4)NC(=O)[C@H](C)NC(=O)[C@H](CO)NC(=O)[C@H](CCC(=O)O)NC(=O)[C@H](CC(=O)O)NC3=O)NC1=O)CCCN2C(C)=O (stereo partly drawn) [I-651, Ac-PL3-Asp-Ile-B5-Asp-Glu-Ser-Ala-Phe-Gln-S8-Phe-BztA-Gln-NH2] | 48 µM (≈ 91.2 µg/mL) | 186 nM | 186 nM | 2.167 | –
